The values that follow are results of earlier work, collected in patent publication US8618066B1 (priority 2003, dated 2013).

“Also recorded” adds a separate entry of the source.

For one data set, the system named is Gram+ & Gram− bacteria, fungi, virus, mammalian/cancer cells. The note with it: cited from earlier work.
“SEQ ID No. 176: synthetic antifungal peptide, Table 1 (CYRFTW)”: the Activity entry is listed as “Fungi”.
“HNP-6 Defensin: peptide, source Human (STRAFTCHCRRSCYSTEYSYGTCTVMGINHRFCCL; HNP-6 Defensin; listed as Homo sapiens)”: the Activity result is “Gram+ & Gram−, Fungi”.
Consider “SEQ ID No. 42: synthetic antifungal peptide, Table 1 (RFKLRF)”, for which the Activity result is given as “Fungi”.
“Melanotropin alpha (Alpha-MSH): peptide, source Bovine (SYSMEHFRWGKPV; Melanotropin alpha (Alpha-MSH); listed as Bos taurus)”: the Activity entry is reported as “Gram+, Fungi”.
For the substance “SEQ ID No. 36: synthetic antifungal peptide, Table 1 (KRKLRF)”, the Activity result was “Fungi”.
For “Anti-fungal protein 1 (pafp-s): source Phytolacca Americana (AGCIKNGGRCNASAGPPYCCSSYCFQIAGQSYGVCKNR; listed as Phytolacca americana)”, the Activity entry was “Fungi”.
Consider “SEQ ID No. 185: synthetic antifungal peptide, Table 1 (MSPSTKNIPAPVAGARAGPIHYCVIM; listed as Magnaporthe grisea)”, for which the Activity entry is recorded as “Fungi”.
For “Cecropin B: peptide, source Chinese oak silk moth (KWKIFKKIEKVGRNIRNGIIKAGPAVAVLGEAKAL; Cecropin B; listed as Antheraea pernyi)”, the Activity result is on record as “Gram+ & Gram−, Fungi”.
As for “Histone H2A (fragment): source Rainbow trout (AERVGAGAPVYL; Oncorhynchus mykiss; Histone H2A (Fragment))”, the Activity entry is “Gram+, Fungi”.
Turning to “Cecropin A: peptide, source Nocutuid moth (RWKVFKKIEKVGRNIRDGVIKAAPAIEVLGQAKAL; Cecropin A; listed as Heliothis virescens)”, the Activity result is on record as “Gram+ & Gram−, Fungi”.
“SEQ ID No. 187: synthetic antifungal peptide, Table 1 (MPSNTQTSNSSMGVNGYSYCVVM; listed as Cryphonectria parasitica)”: the Activity entry is recorded as “Fungi”.
Take “Lactoferrin (Lf) peptide 2: antimicrobial peptide, Table 1 (FKCRRWQWRM; lactoferrin (Lf) peptide 2)”: the Activity result is recorded as “Fungi”.
As for “SEQ ID No. 37: synthetic antifungal peptide, Table 1 (LFKLRF)”, the Activity entry is “Fungi”.
For the substance “Spingerin: peptide, source Pseudacanthotermes spiniger (HVDKKVADKVLLLKQLRIMRLLTRL; Pseudacanthotermas spiniger; Spingerin)”, the Activity result is “Gram+ & Gram−, Fungi”.
For “SEQ ID No. 175: synthetic antifungal peptide, Table 1 (WTFRYC)”, the Activity entry is listed as “Fungi”.
Regarding “PN-AMP: peptide, source Japenese morning glory”, the Activity entry is “Gram+, Fungi”.
As to “Ranalexin: peptide, source Bull frog (FLGGLIKIVPAMICAVTKKC; Ranalexin; listed as Rana catesbeiana)”, the Activity entry is recorded as “Gram+ & Gram−, Fungi”.
Turning to “Histone H2B-1 (HLP-1) (Fragment): source Rainbow trout (PDPAKTAPKKGSKKAVTKA; Oncorhynchus mykiss; Histone H2B-1(HLP-1)(Fragment))”, the Activity entry was “Gram+ & Gram−, Fungi”.
On to “P-18: antimicrobial peptide, Table 1 (KWKLFKKIPKFLHLAKKF; listed as Penaeus vannamei)”, for which the Activity entry is “Gram+ & Gram−, Fungi, Cancer”.
Turning to “Neutrophil defensin 3 (HANP-3): peptide, source Golden hamster (VTCFCRRRGCASRERLIGYCRFGNTIYGLCCRR; Neutrophil defensin 3 (HANP-3); listed as Mesocricetus auratus)”, the Activity result is on record as “Gram+, Fungi”.
Consider “MBP-1: peptide, source Maize (RSGRGECRRQCLRRHEGQPWETQECMRRCRRRG; Zea mays; MBP-1)”, for which the Activity entry was “Gram+ & Gram−, Fungi”.
Take “Hepcidin 20: peptide, source Human (ICIFCCGCCHRSKCGMCCKT; Hepcidin 20; listed as Homo sapiens)”: the Activity entry was “Fungi”.
“SEQ ID No. 183: synthetic antifungal peptide, Table 1 (YMPQGPKLQLWH)”: the Activity entry is “Fungi”.
Take “Protegrin 3: peptide, source Pig (RGGGLCYCRRRFCVCVGR; Protegrin 3; listed as Sus scrofa)”: the Activity entry was “Gram+ & Gram−, Virus, Fungi”.
Turning to “HNP-2 Defensin: peptide, source Human (CYCRIPACIAGERRYGTCIYQGRLWAFCC; HNP-2 Defensin; listed as Homo sapiens)”, the Activity entry is reported as “Gram+ & Gram−, Virus, Fungi”.
“SEQ ID No. 189: synthetic antifungal peptide, Table 1 (QWCRIHGQSCW; listed as Neurospora crassa)”: the Activity result is “Fungi”.
In the case of “SEQ ID No. 47: synthetic antifungal peptide, Table 1 (WFKLRF)”, the Activity result was “Fungi”.
With “Neutrophil defensin 1 (HANP-1): peptide, source Golden hamster (VTCFCRRRGCASRERHIGYCRFGNTIYRLCCRR; Neutrophil defensin 1 (HANP-1); listed as Mesocricetus auratus)”, the Activity result is “Gram+, Fungi”.
Turning to “Hepcidin 25: peptide, source Human (DTHFPICIFCCGCCHRSKCGMCCKT; Hepcidin 25; listed as Homo sapiens)”, the Activity result is reported as “Fungi”.
For “SEQ ID No. 29: synthetic antifungal peptide, Table 1 (FLRF)”, the Activity result is “Fungi”.
As for “Ib-AMP4: peptide, source Impatiens balsamina (GRRCCGWGPGRRYCRRWC; Ib-antimicrobial peptidic agent4; listed as Impatiens balsamina)”, the Activity result was “Gram+ Fungi”.
“SEQ ID No. 184: synthetic antifungal peptide, Table 1 (YMPQGPRLNLWHW)”: the Activity result was “Fungi”.
Take FRLHF [SEQ ID No. 199]: the Activity entry is given as “Gram+ & Gram−, Fungi”.
Consider “Protegrin 5: peptide, source Pig (RGGRLCYCRPRFCVCVGR; Protegrin 5; listed as Sus scrofa)”, for which the Activity entry is on record as “Gram+ & Gram−, Virus, Fungi”.
On to “Tritrpticin: peptide, source Synthetic (VRRFPWWWPFLRR; Synthetic Tritrpticin)”, for which the Activity entry is listed as “Gram+ & Gram−, Fungi”.
Take “NP-3A defensin: peptide, source Rabbit (GICACRRRFCPNSERFSGYCRVNGARYVRCCSRR; NP-3A defensin; listed as Oryctolagus cuniculus)”: the Activity entry is on record as “Gram+ & Gram−, Virus, Fungi”.
For “SEQ ID No. 25: synthetic antifungal peptide, Table 1 (FRF)”, the Activity result is “Fungi”.
As to “SEQ ID No. 182: synthetic antifungal peptide, Table 1 (YMPQGPKLQLFHW)”, the Activity entry is “Fungi”.
Take “Histatin 5: peptide, source Human (DSHAKRHHGYKRKFHEKHHSHRGY; Histatin 5; listed as Homo sapiens)”: the Activity result was “Gram+ & Gram−, Fungi”.
For “SEQ ID No. 195: synthetic antifungal peptide, Table 1 (WCQQKGQPCW; listed as Fusarium graminearum)”, the Activity result is “Fungi”.
Consider “SEQ ID No. 46: synthetic antifungal peptide, Table 1 (QFKLRF)”, for which the Activity entry is given as “Fungi”.
Regarding “SEQ ID No. 38: synthetic antifungal peptide, Table 1 (YFKLRF)”, the Activity result is given as “Fungi”.
Turning to “SEQ ID No. 178: synthetic antifungal peptide, Table 1 (WHWLQLKPGQPMY; listed as Saccharomyces cerevisiae)”, the Activity entry is “Fungi”.
For “GNCP-1: peptide, source Guinea pig (RRCICTTRTCRFPYRRLGTCIFQNRVYTFCC; GNCP-1; listed as Cavia cutleri)”, the Activity result is listed as “Gram+ & Gram−, Virus, Fungi”.
For the substance “SEQ ID No. 33: synthetic antifungal peptide, Table 1 (VFKLRF)”, the Activity entry is reported as “Fungi”.
Turning to “Dolabellanin B2: peptide, source Sea hare (SHQDCYEALHKCMASHSKPFSCSMKFHMCLQQQ; Dolabellanin B2; listed as Dolabella auricularia)”, the Activity entry was “Gram+ & Gram−, Fungi”.
With “HNP-4 Defensin: peptide, source Human (VCSCRLVFCRRTELRVGNCLIGGVSFTYCCTRV; HNP-4 Defensin; listed as Homo sapiens)”, the Activity entry was “Gram+ & Gram−, Fungi”.
On to “BMAP-34: peptide, source Bovine (GLFRRLRDSIRRGQQKILEKARRIGERIKDIFRG; BMAP-34; listed as Bos taurus)”, for which the Activity entry was “Gram+ & Gram−, Fungi”.

The data set is the same for the next values; noted with them: classes of organisms/cells the peptide is active against; cited from earlier work.
On to “Ponericin G!: peptide, source Ponerine ant (GWKDWAKKAGGWLKKKGPGMAKAALKAAMQ; Ponericin G1; listed as Pachycondyla goeldii)”, for which the Activity result is recorded as “Gram+ & Gram−, Fungi”.
With “Gomesin: peptide, source Synthetic (QCRRLCYKQRCVTYCRGR; Synthetic Gomesin)”, the Activity entry is reported as “Gram+ & Gram−, Fungi,; also recorded: Mammalian cells”.
Turning to “Androctonin: peptide, source Androctonus Australis (RSVCRQIKICRRRGGCYYKCTNRPY; listed as Androctonus australis)”, the Activity result is reported as “Gram+ & Gram−, Fungi”.
Take “Dhvar5: peptide, source Synthesis (LLLFLLKKRKKRKY; Synthesis dhvar5)”: the Activity result is listed as “Gram+ & Gram−, Fungi”.
With Melittin B, the Activity entry was “Gram+ & Gram−, Fungi,; also recorded: Mammalian cells”.
